# Source: US4770870A, “Method for reducing pain associated with the administration of 4-sulfido-oxazaphosphorines and 4-sulfoalkylthio-oxazaphorphorines” (Asta Pharma Aktiengesellschaft, priority 1981, dated 1988)
# Where a name gives a salt, the structure may show the parent alone. Read-outs that look alike come from different tables or passages of the source.
# Assays:
# [1] = mouse, in vivo
# [2] = Acute toxicity (LD50), single intravenous dose, species not stated; conditions: in vivo
# [3] = Subchronic toxicity, NMRI-mouse; conditions: same pattern without cysteine, total dosage 3 mmol/kg
# Human mammary-carcinoma = Human mammary-carcinoma heterotransplanted to nu/nu mice; assay type: in vivo, human tumor in mouse (nu/nu); conditions: cyclophosphamide single injection of 100 mg/kg
# Description: (The experimental procedure was carried out as follows according to: C. O. Polvsen, G. K. Jacobsen, J. Rygaard, The Laboratory Animal in Drug Testing, Editor A. Spiegel, pages 63-73, Fischer-Verlag, Stuttgart, (1973).
# (a) Human mammary-carcinoma from operation material of a women's clinic were heterotransplanted to thymusaplastic nu/ny mice. After the 23-25th passage in each case by implantation of a thin tumor section having a diameter of 8-10 mm into the milk ducts after growth of the implants to 0.15-0.25 grams the animals were subjected to therapy and the curative effect determined through measuring the tumor surface.
structure (smiles),measurement,setting,value
O=S(=O)([O-])CCS.[Na+],prevention of pain induced by mafosfamide lysine salt,"rat, in vivo",completely prevented the pain-inducing effect of mafosfamide lysine salt
"Cl [HCl pH 4, hydrochloric acid]","Reaction (+ = reaction, - = no reaction)","rat, in vivo",-
same,reaction,"rat, in vivo",Neither
"CC(=O)N[C@@H](CS)C(=O)O [NAC, N-acetyl-cysteine]",prevention of pain induced by mafosfamide lysine salt,5 molar mesna or NAC solution,completely prevented the pain-inducing effect of mafosfamide lysine salt
"O=P1(N(CCCl)CCCl)NC(SCC(S)CS(=O)(=O)O)CCO1 (centres unmarked) [cyclohexylamine salt, 3-[2-(bis-(2-chloroethyl)-amine-2-oxo-tetrahydro-2H-1,3,2-oxazaphosphorine-4-yl-thio]-2-mercaptopropanesulfonic acid-cyclohexylamine salt]",increase of the LD50,[1],2-3 fold
O=P1(N(CCCl)CCCl)NCCCO1 (centres unmarked) [cyclophosphamide],LD50,[2],244 mg/kg
same,Approximate threshold concentration inducing venous pain,"Table 1, sleeping rat",30 mg/mL
same,concentration at which no reaction was induced,sleeping rat,below 30 mg/ml
same,"Reaction (+ = reaction, - = no reaction)","sleeping rat, tail vein infusion",+
same,deaths of mice,[3],6 mice
same,tumor growth,Human mammary-carcinoma,checking of the tumor growth
O=P1(NCCCl)OCCCN1CCCl (centres unmarked) [ifosfamide],Approximate threshold concentration inducing venous pain,"rat, in vivo",> 10 mg/mL
same,"Reaction (+ = reaction, - = no reaction)","rat, in vivo",+
same,concentration at which no reaction was induced,"rat, in vivo",below 10 mg/ml
